From patent US20110245104A1, “Method for screening the sensitizing properties of chemical compounds” (priority 2010, published 2011)
“Also recorded” adds a separate entry of the source. Read-outs that look alike come from different tables or passages of the source.

How the values were obtained:
[1] = system: Normal human epidermal keratinocytes (HEKn); test: Keratinocyte blebbing response, light microscopy (Example 1)
Protocol: Normal human epidermal keratinocytes (HEKn, Cascade Biologics, Portland, Oreg., USA) were maintained in phenol red-free EpiLife keratinocyte medium (Cascade Biologics) supplemented with 60 μM CaCl2, the antibiotics gentamicin/amphotericin and 1% (v/v) human keratinocyte growth supplement (HKGS; Cascade Biologics). Alternatively, Medium 154 containing 200 μM CaCl2 supplemented with HKGS (1% (v/v), without antibiotics is used. Cells were grown at 37° C. in a humidified 5% CO2 incubator. Final concentrations of the components in the supplemented medium were: bovine pituitary extract, 0.2% v/v; bovine insulin, […]; hydrocortisone, […]; bovine transferrin, […]; human epidermal growth factor, 0.2 ng/mL; optional: gentamicin, 10 μg/mL and amphotericin B, 0.25 μg/mL. All reagents were obtained from Cascade Biologics, Portland, Oreg., USA. The keratinocytes were used for experiments in the fifth or sixth passage.
HEKn cells in passage 6 were split and resuspended to 18500 cells/ml in medium 154 (Cascade Biologics) supplemented with 1% (v/v) human keratinocyte growth supplement (HKGS; Cascade Biologics, no antibiotics added). Cell suspension (0.5 ml) was added to each well in a 24 well plate (Nunc Multidishes Nunclon, Sigma Aldrich, Stockholm, Sweden) and incubated at 37° C., 5% CO2. The medium was replaced every second day by fresh 154 medium supplemented with HKGS (no antibiotics added) until cells had grown confluent.
The compounds to be tested (for example: mBBr, SDS, CDNB, nonanoic acid, HCA, oxazolone were purchased from Sigma Aldrich, qBBr, dBBr, glyoxal, and formaldehyde were obtained from Merck-Schuchardt, Darmstadt, Germany) were diluted in DMSO (Sigma Aldrich, Stockholm, Sweden) to final concentrations of 50 mM, 5 mM and 0.5 mM. These stock solutions were prepared fresh each time the experiment was performed. Alternatively, the mixture, solution, formulation, etc. can be used after dilution/dissolving in DMSO (to test the combined effects of the compounds in that particular preparation).
1) Cell preparation just prior to starting the experiment: the medium in the cell culture plate was replaced by 250 μl fresh Medium 154 (Cascade Biologics) supplemented with HKGS (1% (v/v) human keratinocyte growth supplement (HKGS; Cascade Biologics)) and the cells are kept at 37° C., 5% CO2.
2) Preparation of test compound in medium: 245 μl Medium 154 was added to 0.5 ml microtubes and preheated to 37° C. (waterbath). 5 μl of stock solution of compound was added to the microtubes containing preheated medium. These solutions were then added immediately to the cells in the 24-well plate.
3) The solutions in the microtubes (i.e. 250 μl medium+test compound) were added to each plate. The final concentration of each compound in the test was thus 0.5 mM, 0.05 mM, and 0.005 mM. The plate containing cells and test compounds was incubated for 24 hours at 37° C., 5% CO2.
4A) Each well was examined with a light microscope to determine the blebbing response (a Nikon TE300 inverted microscope) coupled to a digital camera.

[2] = system: anti-nuclear antibodies (ANA); test: Anti-nuclear antibodies (ANA) in sera of mice topically exposed to haptens; assay type: in vivo; settings: topical exposure
[3] = system: serum amyloid P component (SAP); test: Serum amyloid P component (SAP) in sera of mice exposed to sensitizers; assay type: in vivo; settings: sera of mice exposed to sensitizer
[4] = system: K5 and K14 in blebs from human keratinocytes; test: Keratin content of blebs released from keratinocytes (Western blot); assay type: cell-based; settings: blebs from hapten-treated keratinocytes
Protocol: The quantification of the blebbing response was also made by observing: the amount of released protein (e.g. K5 and K14) through SDS-PAGE and western blots. Blebs were collected and lysed as described in example 4. SDS-PAGE: The samples were diluted (Blebs: 46 μg, 30 μl for blotting and 29.2 μg, 40 μl for SDS-PAGE. K14 and K5: 0.2 μg, 5 μl) with XT Sample Buffer 4X (BioRad, Hercules, Calif., USA) and milli-Q water. 1 μl DTT (2M) was added to each sample followed by heating at 96° C. for 2 minutes before application on the gel. Electrophoresis program: 200V, 400 mA, 50 W, 50 min. MOPS Running Buffer. The gels were fixed, scanned for fluorescence (excitation 480 nm, emission 530 nm) and coomassie stained (Bio-Safe™ Coomassie, BioRad, Hercules, Calif., USA). The gels are then used for quantitative measurement of proteins. Western Blot: Unfixed gels were blotted onto polyvinyldifluoride membranes (PVDF Ready-gel Blotting Sandwiches, 7×8.5 cm, BioRad, Hercules, Calif., USA). Blotting program: 70 V, 400 mA, 50 W, 30 min. Transfer buffer. Novex XCell II™ Blot Module (E19051, Novex, San Diego, Calif., USA). […]
The blebs in the supernatant was lysed with 4× freeze-thaw cycles using ethanol, dry ice and a 37° C. water bath. […] Total protein concentration was determined with Pierce BCA Protein Assay. […]

cysteine 54 (C54) of K5 = molecular target: T1, cysteine 54 (C54) of K5 (Homo sapiens, UniProt P13647); test: Haptenation site by LTQ-FT-ICR mass spectrometry; settings: full-thickness human skin and living human keratinocytes
T1 construct: endogenous in cells; host or cells: intact full-thickness human skin; living (primary) human keratinocytes
T1 sequence (P13647 1-590): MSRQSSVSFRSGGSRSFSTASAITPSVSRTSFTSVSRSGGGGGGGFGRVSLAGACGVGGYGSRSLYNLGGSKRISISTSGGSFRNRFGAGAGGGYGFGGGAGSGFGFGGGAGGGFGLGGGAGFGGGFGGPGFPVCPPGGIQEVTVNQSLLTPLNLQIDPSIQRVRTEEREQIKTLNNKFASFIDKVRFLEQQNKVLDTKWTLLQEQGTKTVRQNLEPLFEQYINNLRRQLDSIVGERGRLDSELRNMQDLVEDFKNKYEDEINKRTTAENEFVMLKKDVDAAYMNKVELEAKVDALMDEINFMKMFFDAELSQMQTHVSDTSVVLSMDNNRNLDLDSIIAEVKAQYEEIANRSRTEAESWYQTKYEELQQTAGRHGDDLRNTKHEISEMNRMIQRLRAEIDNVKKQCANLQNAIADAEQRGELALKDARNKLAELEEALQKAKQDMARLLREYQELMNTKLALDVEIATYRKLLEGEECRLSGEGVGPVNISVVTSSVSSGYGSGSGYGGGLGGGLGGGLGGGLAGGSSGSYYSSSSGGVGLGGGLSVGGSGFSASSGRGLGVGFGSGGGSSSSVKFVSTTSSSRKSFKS
T1 sequence (P02533 1-472 partner): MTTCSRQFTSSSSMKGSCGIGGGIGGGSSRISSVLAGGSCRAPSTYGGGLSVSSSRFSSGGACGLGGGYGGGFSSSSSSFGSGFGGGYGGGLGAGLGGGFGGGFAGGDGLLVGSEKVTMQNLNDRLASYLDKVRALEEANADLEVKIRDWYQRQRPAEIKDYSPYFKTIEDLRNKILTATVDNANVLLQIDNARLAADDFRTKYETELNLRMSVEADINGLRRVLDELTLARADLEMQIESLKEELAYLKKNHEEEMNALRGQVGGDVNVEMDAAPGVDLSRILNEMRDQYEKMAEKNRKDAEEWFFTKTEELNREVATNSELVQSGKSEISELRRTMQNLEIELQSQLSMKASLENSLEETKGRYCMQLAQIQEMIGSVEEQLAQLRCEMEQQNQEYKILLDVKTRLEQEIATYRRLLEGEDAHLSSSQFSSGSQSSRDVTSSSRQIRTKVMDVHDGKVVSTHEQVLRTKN
Source text: The second step is that the molecules enter the basal cells. Since the extracellular environment is oxidizing, extracellular cysteines are mostly oxidized to disulfides. However, it is in the reduced, intracellular environment that the haptens find reduced thiols to react with. Once inside the cells the compounds will react with available (i.e. not sterically hindered), reduced cysteines (thiol groups). […] Furthermore, it was identified that one of the cysteines that the haptens react with is cysteine 54 (C54) of K5. […] One of the reasons for intense reaction at C54 is presumably its high effective concentration just inside the cell membrane. It is vital in the life of an organism to fail-safe its epithelial integrity, and the bundling of the KIFs ensures a high effective local concentration of the peptide stretch containing C54, ensuring strong welding of the cell to its surroundings. Amino acids nearby in the primary sequence are consequently also located within physical reach of an incoming compound in similarly high effective concentrations. Looking at blebbing brought on by amine- and arginine-reactive compounds from this angle, the residues K71 and R72 are the closest candidates in the primary sequence.

human skin excerpts = test: Labeling of human skin excerpts by caged haptens
Source text: The first step is that the molecules come into contact with the skin (the stratum corneum). Many of the reactive molecules react in the stratum corneum, something that can be seen in experiments with human skin excerpts and the caged (mBBr and dBBr) haptens. However, a significant proportion of the molecules penetrate further down to the suprabasal layers of the epidermis but also the follicular pathway is of importance for bringing xenobiotics into the skin. It is likely that the penetration is due both to the acidic pH of the stratum corneum (the molecules react more slowly when the pH is low), but also because many of the available groups have reacted. In the suprabasal layers, the haptens have a hard time penetrating the cells, as the cornification of the cells creates a thick, relatively impermeable envelope around the suprabasal cells. Consequently, the haptens penetrate down to the basal layer. Here, the cell membrane is much thinner and more fluidic and the molecules can thus enter the basal cells.

[5] = HEKn cells, tested at 0.5, 0.05 and 0.005 mM
[6] = HEKn cells, time 24 h and concentration 0.5 mM, visual inspection, blind
[7] = compound added to human keratinocytes

O=[N+]([O-])c1ccc(Cl)c([N+](=O)[O-])c1 [CDNB, 1-chloro 2,4 dinitrobenzene]
Concentration at which the cells produced blebs after 24 hours [1, 5]: 0.5 mM
Time to blebbing ([1]; HEKn cells, inspected at 1.5, 2.5 and 24 h, tested at 0.5, 0.05 and 0.005 mM): 24 h
Amount of blebs [1, 6]: ++
Blebbing response of human keratinocytes (induced or not) [1, 7]: provoke a blebbing response
Sensitizing potential, collective analysis of the three blebbing endpoints ([1]; time to blebbing, concentration, amount of blebs combined): strong sensitizers
Level of anti-nuclear antibodies (ANA) in sera [2]: increased levels
Level of serum amyloid P component (SAP) [3]: increased levels

CCCCCCC(C=O)=Cc1ccccc1 [HCA, α-hexyl cinnamic aldehyde]
Blebbing response of human keratinocytes (induced or not) [1]: did not induce blebbing at the tested concentrations

C=O [formaldehyde]
Blebbing response of human keratinocytes (induced or not) [1]: provoke a blebbing response

O=CC=O [glyoxal]
Sensitizing potential, collective analysis of the three blebbing endpoints [1]: moderate sensitizer
Concentration at which the cells produced blebs after 24 hours [1, 5]: 0.5 mM
Amount of blebs [1, 6]: +
Blebbing response of human keratinocytes (induced or not) [1, 7]: provoke a blebbing response
Level of anti-nuclear antibodies (ANA) in sera [2]: increased levels
Keratins (K5 and K14) in blebs [4]: contain K5 and K14; also recorded: contain keratins
Level of serum amyloid P component (SAP) [3]: increased levels

Cc1c(C)n2c(CBr)c(C)c(=O)n2c1=O [mBBr, monobromobimane]
Covalent modification of C54 of K5 (cysteine 54 (C54) of K5): modify C54 of K5; also recorded: modifies C54 of K5
Labeling of cells in the basal layer (human skin excerpts): cells in the basal layer are labeled
Level of anti-nuclear antibodies (ANA) in sera [2]: increased levels

CCO/C=C1\N=C(c2ccccc2)OC1=O [oxazolone]
Amount of blebs [1]: +++
Blebbing response of human keratinocytes (induced or not) [1]: provoke a blebbing response
Sensitizing potential, collective analysis of the three blebbing endpoints [1]: extreme sensitizer
Time to blebbing [1]: 1.5 h
Level of anti-nuclear antibodies (ANA) in sera [2]: increased levels
Keratins (K5 and K14) in blebs [4]: contain K5 and K14; also recorded: contain keratins
